Test results: PMC6698794, “Catalytic Knockdown of miR-21 by Artificial Ribonuclease: Biological Performance in Tumor Model” (Frontiers in Pharmacology, 2019)
Where “and” joins values, the source holds several entries; their conditions need not be identical. Equal entries are not always repeated.

Experiments:
RLS40 lymphosarcoma = assay: Tumor transplantation assay: RLS40 cells treated ex vivo, then inoculated intramuscularly; assay type: in vivo, CBA mice; settings: for Tumor doubling time, DT: DT = (t − t0) × ln 2/(ln V − ln V0)
Method: RLS40 ascites were taken from CBA mice intraperitoneally injected with tumor cells (2 × 10^6 in 0.2 ml buffered saline) into their abdominal cavities. RLS40 cells, isolated from ascites fluid by filtration through LSM were divided into seven portions: 1) untreated cells; 2) the cells incubated with Lipofectamine; the cells transfected with 1 µM of 3) h-ODN, 4) 2′-OMe, 5) Inh, 6) miR-21-miRNase, or 7) luc-POC each. After 4 h of transfection, cell suspensions (0.1 ml, 2 × 10^6 cells) were intramuscularly inoculated into the right lower limb of CBA mice for solid tumor development. As soon as tumors began to be palpable, the tumor volumes were measured every 2–3 days using calipers. Tumor volumes were calculated as V = (π/6 × length × width × height). Hepatic index was estimated as (liver weight/mouse weight) × 100% and as 5.0% for healthy CBA mice. Tumor doubling time (DT) was estimated as DT = (t − t0) × ln 2/(ln V − ln V0), where (t − t0) indicates the length of time between two measurements of tumor size and V0 and V denote the tumor volume at two points of the measurement ([Ozono et al., 2004]).
Figure 3 Antitumor effect of miR-21-specific miRNase. (A) Retardation of RLS40 growth in vivo after treatment of RLS40 cells with antisense oligonucleotides, control conjugate (luc-POC), or miR-21-miRNase. (B) Tumor volume on day 19 after RLS40 transplantation. Mice were injected with RLS40 cells either without any treatment (w/t) or treated with Lipofectamine (LF), commercial miR-21 inhibitor at concentration 0.1 µM (Inh 0.1, recommended) and 1 µM (Inh 1, in accordance to concentration of miRNase used in the study), control conjugate (luc-POC, 1 µM), hairpin 2′OMe oligonucleotide (2′-OMe, 1 µM), hairpin antisense oligonucleotide (h-ODN, 1 µM) or miR-21-specific miRNase (miR-21-miRNase, 1 µM). Data were statistically analyzed using two-way ANOVA with post hoc Tukey test. Data are presented as mean ± s.e. p-value indicates a statistically reliable difference. (C) Doubling time of RLS40 tumors after treatment with oligonucleotides and conjugates. TEXT PRINTED IN THE PICTURE: (C) untreated: DT, days: 2,45±0,49 | (C) LF: DT, days: 2,48±0,35 | (C) Inh 0.1: DT, days: 2,56±0,59 | (C) Inh 1: DT, days: 13,90±0,46 | (C) 2’-OMe: DT, days: 3,17±1,45 | (C) luc-POC: DT, days: 2,40±0,45 | (C) h-ODN: DT, days: 3,00±1,83 | (C) miR-21-miRNase: DT, days: 12,77±0,34

miR-21 = assay: Cleavage of 5′-[32P]-labeled miR-21 by miR-21-miRNase and/or RNase H in multiple turnover conditions; assay type: biochemical; settings: for Level of cleavage of miR-21 by miRNase alone: 5- or 10-fold excess of target; for Level of cleavage of miR-21 by miRNase alone / τ/2, half-life time of miR-21: miRNase 5 µM, 37°C
Method: Unlabeled miR-21 (10 µM, 25 µM, or 50 µM) and 10^5 cpm (Cherenkov’s counting) of [^32P]-miR-21 was incubated at 37°C with either miR-21-miRNase (5 µM) or RNase H (100 U/ml, plus 5 µM of either h-ODN or miR-21-miRNase) in buffer (20 mM Tris-HCl, pH 7.8, 40 mM KCl, 8 mM MgCl2, 1 mM DTT). Reactions were quenched by precipitation of RNA with 2% LiClO4 in acetone, and RNA cleavage products quantified in dried gels as described previously ([Patutina et al., 2017a]) using Molecular Imager FX and Quantity One software.
Figure 4 Cleavage of 5’-[^32P]-labeled miR-21 by miR-21-miRNase and/or RNase H. Autoradiographs of 18% polyacrylamide/8 M urea gel, showing the patterns of cleavage of miR-21 at its 2- (A), 5- (C), and 10-fold (E) molar excess over miR-21-miRNase or h-ODN. […] Duplexes formed by 5′-[^32P]-miR-21 (10, 25, and 50 µM) and h-ODN or miRNase (5 µM) were incubated at 37°C for 24–72 h. Lanes Im and T1: imidazole ladder and partial RNA digestion with RNase T1, respectively; “control”: RNA was incubated in the absence of oligonucleotide or conjugate and in the presence of RNase H (100 U/ml). Diagrams (B), (D), and (F) show time dependency of cleavage of miR-21 by miR-21-miRNase alone, by a synergetic action of miR-21-miRNase and RNase H, or by RNase H (100 U/ml) alone when miR-21 was in a complex with h-ODN at 2-, 5- and 10-fold molar excess of miR-21 over miR-21-miRNase or h-ODN, respectively. (G) Positions of miR-21 cleavage induced by miR-21-miRNase (red arrows), RNase H in the duplex with h-ODN (black arrows), and by combination of miR-21-miRNase and RNase H. (H) The hypothetical representation of miR-21 cleavage by a combination of miRNase and RNase H.

[1] = cells treated with 1 µM before transplantation

“acetyl-[(LeuArg)2Gly]2-aminohexyl-AGTCTGATAAGCTACAAGTCAGCGAAAGCTGACTTG [miR-21-miRNase, peptide acetyl-[(LeuArg)2Gly]2 conjugated through aminohexyl linker to 5′-end of miR-21-targeted hairpin oligodeoxyribonucleotide]” was tested, and the “Increase of tumor doubling time over untreated control (w/t)” value (RLS40 lymphosarcoma; [1]) was over 5 fold, the “Tumor doubling time, DT” value (RLS40 lymphosarcoma; [1]) was 12,77±0,34 days and 12.77 days and the “Factor by which RNase H elevated cleavage of miR-21 (from τ/2)” value (shortened to “Factor … (from τ/2)”) (miR-21; 2-fold excess of miR-21) was 14.9 times. The “Factor by which RNase H enhanced the catalytic turnover” value (miR-21; 2-fold excess of miR-21) was 15.6 times, the “Factor … (from τ/2)” value (miR-21; 5-fold excess of miR-21) was 3.0 times and the “Factor by which RNase H enhanced the catalytic turnover” value (miR-21; 5-fold excess of miR-21) was 7.0 times. For the same substance, the “Factor … (from τ/2)” value (miR-21; 10-fold excess of miR-21) was 2.4 times, the “Factor by which RNase H enhanced the catalytic turnover” value (miR-21; 10-fold excess of miR-21) was 4.6 times and the “Incubation time to complete (∼100%) RNA degradation” value (miR-21; miR-21-miRNase 5 µM with RNase H 100 U/ml, 2-fold excess of miR-21) was 8 h. The “Incubation time to complete RNA degradation” value (miR-21; miR-21-miRNase 5 µM with RNase H 100 U/ml, 5-fold excess of miR-21) was 24 h, the “Incubation time to complete RNA degradation” value (miR-21; miR-21-miRNase 5 µM with RNase H 100 U/ml, 10-fold excess of miR-21) was at most 48 h and the “Level of cleavage of miR-21 by miRNase alone” value (miR-21; over 24 h, irrespective of 2-) was 65–68%. The “Level of cleavage of miR-21 by miRNase alone” value (miR-21; over 72 h, 2-) was 90%, the “τ/2, half-life time of miR-21” value (miR-21; with RNase H 100 U/ml, miR-21 10 µM (2-fold RNA excess), pH 7.8) was 0.7 ± 0.2 h and the “τ/2, half-life time of miR-21” value (miR-21; with RNase H 100 U/ml, miR-21 25 µM (5-fold RNA excess), pH 7.8) was 5.4 ± 0.4 h. The “τ/2, half-life time of miR-21” value (miR-21; with RNase H 100 U/ml, miR-21 50 µM (10-fold RNA excess), pH 7.8) was 4.7 ± 0.4 h, the “τ/2, half-life time of miR-21” value (miR-21; without RNase H, miR-21 10 µM (2-fold RNA excess), Tris-HCl pH 7.8, 40 mM KCl, 8 mM MgCl2, 1 mM DTT, time for 50% cleavage) was 10.4 ± 0.5 h and the “τ/2, half-life time of miR-21” value (miR-21; without RNase H, miR-21 25 µM (5-fold RNA excess), pH 7.8) was 16.2 ± 1.5 h. The “τ/2, half-life time of miR-21” value (miR-21; without RNase H, miR-21 50 µM (10-fold RNA excess), pH 7.8) was 11.04 ± 0.8 h.
With “h-ODN: miR-21-targeted hairpin deoxyribooligonucleotide AGTCTGATAAGCTACAAGTCAGCGAAAGCTGACTTG, unconjugated with the peptide (DNA, backbone and methylation of C not given here; hairpin at 3' end, unconjugated)” the “Retardation of tumor growth, mean tumor volume times less than in the control group” value (RLS40 lymphosarcoma; cells transfected once with 1 µM for 4 h, 2 × 10^6 cells i.m. into CBA mice, day 19) was “about 2 fold”, the “Tumor doubling time against w/t (in words)” value (RLS40 lymphosarcoma; [1]) was “did not show a statistically significant difference” and the “Tumor doubling time, DT” value (RLS40 lymphosarcoma; [1]) was 3,00±1,83 days. The “Total extent of miR-21 cleavage in heteroduplex with h-ODN by RNase H alone” value (miR-21; RNase H 100 U/ml, h-ODN 5 µM, 2-fold excess of miR-21, plateau by 30 min) was 45%, the “Extent of miR-21 cleavage in heteroduplex with h-ODN by RNase H alone” value (miR-21; RNase H 100 U/ml, h-ODN 5 µM, 5-fold excess of miR-21) was “about 10%” and the “Extent of miR-21 cleavage in heteroduplex with h-ODN by RNase H alone” value (miR-21; RNase H 100 U/ml, h-ODN 5 µM, 10-fold excess of miR-21) was about 5%.
